Experiments:
carcinoma cells = assay: Uptake and retention of mitochondrial marking agents in living carcinoma cells; type: cell-based; details: 5 minute incubation, rinsed twice with 1% acetic acid, 2-butanol extraction, spectrophotometry
Experimental: Different concentrations of the various cationic marking agents, at 100, 50, 10 and 1 μg/ml are prepared in RPMI medium complete with 20% fetal calf serum, 1 mM glutamine, hydrocortisone, insulin, transferrin, estradiol, selenium and growth hormone.
The carcinoma cells are incubated at 37EC in tissue culture incubators with 5% CO2 and 95% relative humidity, for 5 minutes with each agent and concentration there and then rinsed twice using 2 minute incubations with 1% acetic acid. After incubation and rinsing, the cells are harvested, at 30 min., 1 hour, 2 hours, 4 hours and 8 hours. The cells are then extracted with 2-butanol and analyzed by spectrophotometry for quantitation of the marking agent.

[1] = tested on: living oral carcinoma cells (SqCHN); assay: Selective toxicity, cell killing of carcinoma cells over 8 days; type: cell-based; details: for selective toxicity towards carcinoma cells: carcinoma cells compared to normal oral epithelial cells; for cell death of carcinoma cells: incubated with dye fraction, washed, observed over 8 days
Experimental: (§1) The compounds represented by peaks 5, 6, 7 and 8, obtained during the fractionation of the toluidine blue O, are analyzed for their selective toxicity towards living oral carcinoma cells (SqCHN) compared to living normal oral epithelial cells. Separate cultures of squamous carcinoma cells and normal epithelial cells are incubated with the different dye fractions and then washed with dye-free medium. The cells are then re-incubated in growth medium and observed over a period of 8 days to determine the extent of cell killing. The compound of peak 6 results in 95% cell death of carcinoma cells, compared to only about 20% killing of normal cells.

[2] = tested on: living normal oral epithelial cells; assay: Selective toxicity, cell killing of normal cells over 8 days; type: cell-based; details: incubated with dye fraction, washed, observed over 8 days
Experimental: as §1

[3] = tested on: other squamous carcinomas, adenocarcinomas, lymphomas and sarcomas; assay: Further in-vitro tests with other isolates of carcinoma cells and normal epithelial cells; type: cell-based; details: conducted in the manner of Example 8
Experimental: (§2) The therapeutic characteristics of the compounds of peaks 6 and 8 are determined by further in-vitro tests, conducted in the manner of Example 8, using other isolates of carcinoma cells and normal epithelial cells. The testing profile includes other squamous carcinomas of the head and neck, esophagus, lung, cervix and skin, as well as other types of cancers, including adenocarcinomas, lymphomas and sarcomas. In-vivo “delay of tumor growth” and “tumor regression assay” tests using tumor-bearing animals, including head and neck and lung carcinomas implanted in Balb-C mice, are made to analyze the in-vivo therapeutic benefit of these compounds.

[4] = tested on: head and neck and lung carcinomas implanted in Balb-C mice; assay: In-vivo delay of tumor growth and tumor regression assay; details: tumor-bearing Balb-C mice
Experimental: as §2

SMILES: Cc1cc2nc3ccc(N(C)C)cc3[s+]c2cc1N.[Cl-] [toluidine blue O]
- saturation concentration (carcinoma cells): ≥ 10 µg/mL

SMILES: Cc1cc2nc3ccc(N(C)C)cc3[s+]c2cc1N [peak 8]
- selective toxicity towards carcinoma cells [1]: selectively toxic towards carcinoma cells
- cell death of carcinoma cells [1]: 89%
- killing of normal cells [2]: about 20%
- selective toxicity to the wider variety of cancer cell types, in vitro [3]: confirm the selective toxicity
- selective toxicity, in-vivo therapeutic benefit [4]: confirm the selective toxicity

SMILES: CNc1ccc2nc3cc(C)c(N)cc3[s+]c2c1 [peak 6]
- selective toxicity towards carcinoma cells [1]: selectively toxic towards carcinoma cells
- cell death of carcinoma cells [1]: 95%
- killing of normal cells [2]: about 20%
- selective toxicity to the wider variety of cancer cell types, in vitro [3]: confirm the selective toxicity
- selective toxicity, in-vivo therapeutic benefit [4]: confirm the selective toxicity

SMILES: CNc1ccc2nc3ccc(N)c(C)c3[s+]c2c1 [peak 5]
- selective toxicity towards carcinoma cells [1]: do not exhibit the same selective toxicity

SMILES: Cc1c(N)ccc2nc3ccc(N(C)C)cc3[s+]c12 [peak 7]
- selective toxicity towards carcinoma cells [1]: do not exhibit the same selective toxicity
